Laboratory results reported in US9353082B2, “Pharmaceutical compounds” (BIAL—PORTELA & CA, S.A., priority 2008, dated 2016).
Where a name gives a salt, the structure may show the parent alone.

Each compound was assayed against T1, FAAH (Rattus norvegicus, UniProt P97612) (assay: In vitro FAAH activity in rat brain membranes, 3H-AEA substrate, % of control). Conditions: 100 nM test compound, low value = strong inhibitor.
T1 construct: Frozen brains (without cerebellum) from Wistar rats were used; from tissue; host or cells: Wistar rat brain (without cerebellum), washed membrane pellets
T1 sequence (P97612 1-579): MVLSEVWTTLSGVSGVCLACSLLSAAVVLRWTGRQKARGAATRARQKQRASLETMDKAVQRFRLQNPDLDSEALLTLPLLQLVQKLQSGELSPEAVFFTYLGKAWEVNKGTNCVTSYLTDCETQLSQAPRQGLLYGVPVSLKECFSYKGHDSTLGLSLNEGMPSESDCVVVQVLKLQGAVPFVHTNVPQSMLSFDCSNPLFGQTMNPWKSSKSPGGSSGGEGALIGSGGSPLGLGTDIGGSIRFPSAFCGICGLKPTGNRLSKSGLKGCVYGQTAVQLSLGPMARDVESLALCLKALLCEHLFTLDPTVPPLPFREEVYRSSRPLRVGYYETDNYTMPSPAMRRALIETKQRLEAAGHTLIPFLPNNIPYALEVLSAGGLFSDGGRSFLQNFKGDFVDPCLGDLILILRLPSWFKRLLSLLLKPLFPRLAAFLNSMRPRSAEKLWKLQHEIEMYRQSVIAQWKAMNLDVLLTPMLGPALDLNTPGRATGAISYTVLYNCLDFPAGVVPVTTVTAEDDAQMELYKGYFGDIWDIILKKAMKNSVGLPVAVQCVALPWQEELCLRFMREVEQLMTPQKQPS
Assay type: biochemical, Wistar rats
Method in brief: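 FAAH activity measured as 3H-ethanolamine released from 2 μM [3H]AEA over 10 min by rat brain membrane preparation, after 15 min 37 °C preincubation with test compound at 10 or 0.1 μM. Charcoal-separated supernatant scintillation-counted; values expressed as % of control minus no-protein blank.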

Structure (SMILES) | In Vitro FAAH activity, 100 nM
Cc1ccc(OC2CCN(C(=O)n3cnc(-c4ccc(F)cc4F)n3)CC2)cc1 [Compound 134, (3-(2,4-difluorophenyl)-1H-1,2,4-triazol-1-yl)(4-(p-tolyloxy)piperidin-1-yl)methanone] | 34.5 % of control
O=C(N1CCN(c2ccc(O)cc2)CC1)n1nnc2ccccc21 [Compound 136, (1H-benzo[d][1,2,3]triazol-1-yl)(4-(4-hydroxyphenyl)piperazin-1-yl)methanone] | 0.2 % of control
COc1ccc(OC2CCN(C(=O)n3nnc4ccccc43)CC2)cc1 [Compound 137, (1H-benzo[d][1,2,3]triazol-1-yl)(4-(4-methoxyphenoxy)piperidin-1-yl)methanone] | 0.1 % of control
CN(C)C(=O)n1cnc(-c2ccc(N3CCN(c4ccccc4)CC3)cc2)n1 [Compound 138, N,N-dimethyl-3-(4-(4-phenylpiperazin-1-yl)phenyl)-1H-1,2,4-triazole-1-carboxamide] | 83.8 % of control
CN(C)C(=O)n1cnc(-c2ccc(Oc3ccc(C#N)cc3)cc2)n1 [Compound 140, 3-(4-(4-cyanophenoxy)phenyl)-N,N-dimethyl-1H-1,2,4-triazole-1-carboxamide] | 58.6 % of control
N#Cc1ccc(Oc2ccc(-c3ncn(C(=O)N4CCOCC4)n3)cc2)cc1 [Compound 141, 4-(4-(1-(morpholine-4-carbonyl)-1H-1,2,4-triazol-3-yl)phenoxy)benzonitrile] | 15.9 % of control
O=C(N[C@H]1CN2CCC1CC2)n1nnc2ccccc21 [Compound 142, (R)—N-(quinuclidin-3-yl)-1H-benzo[d][1,2,3]triazole-1-carboxamide hydrochloride] | 101.8 % of control
CN(C)C(=O)n1cnc(-c2ccc(Oc3ccc(C(N)=O)cc3)cc2)n1 [Compound 146, 3-(4-(4-carbamoylphenoxy)phenyl)-N,N-dimethyl-1H-1,2,4-triazole-1-carboxamide] | 77.1 % of control
CN(C(=O)n1cnc(-c2ccc(Oc3ccc(C(N)=O)cc3)cc2)n1)c1ccccc1 [Compound 149, 3-(4-(4-carbamoylphenoxy)phenyl)-N-methyl-N-phenyl-1H-1,2,4-triazole-1-carboxamide] | 49.9 % of control
CN(C(=O)n1nnc2ccccc21)[C@H]1CC[C@H](OCc2ccccc2)CC1 [Compound 152, N-((1r,4r)-4-(benzyloxy)cyclohexyl)-N-methyl-1H-benzo[d][1,2,3]triazole-1-carboxamide] | 1.3 % of control
COc1cccc(OCC2CCN(C(=O)n3nnc4ccccc43)CC2)c1 [Compound 153, (1H-benzo[d][1,2,3]triazol-1-yl)(4-((3-methoxyphenoxy)methyl)piperidin-1-yl)methanone] | 0 % of control
O=C(N1CCN(C2CCCC2)CC1)n1nnc2ccccc21 [Compound 154, (1H-benzo[d][1,2,3]triazol-1-yl)(4-cyclopentylpiperazin-1-yl)methanone] | 0.2 % of control
O=C(N1CCC(O)CC1)n1nnc2ccccc21 [Compound 159, (1H-benzo[d][1,2,3]triazol-1-yl)(4-hydroxypiperidin-1-yl)methanone] | 4.8 % of control
CN(C(=O)n1cnc(Cc2ccccc2)n1)c1ccccc1 [Compound 160, 3-benzyl-N-methyl-N-phenyl-1H-1,2,4-triazole-1-carboxamide] | 18.8 % of control
CC1(C)COCN1C(=O)n1cnc(-c2ccccc2)c1 [Compound 161, (4,4-dimethyloxazolidin-3-yl)(4-phenyl-1H-imidazol-1-yl)methanone] | 93.6 % of control
O=C(N1CCC(Oc2ccc(OCc3ccccc3)cc2)CC1)n1nnc2ccccc21 [Compound 164, (1H-benzo[d][1,2,3]triazol-1-yl)(4-(4-(benzyloxy)phenoxy)piperidin-1-yl)methanone] | 0.3 % of control
COc1ccc(OCC2CCN(C(=O)n3nnc4ccccc43)CC2)cc1 [Compound 165, (1H-benzo[d][1,2,3]triazol-1-yl)(4-((4-methoxyphenoxy)methyl)piperidin-1-yl)methanone] | 0 % of control
COc1cccc(OC2CCN(C(=O)n3nnc4ccccc43)CC2)c1 [Compound 166, (1H-benzo[d][1,2,3]triazol-1-yl)(4-(3-methoxyphenoxy)piperidin-1-yl)methanone] | 0 % of control
CCCCOc1ccc(OC2CCN(C(=O)n3nnc4ccccc43)CC2)cc1 [Compound 168, (1H-benzo[d][1,2,3]triazol-1-yl)(4-(4-butoxyphenoxy)piperidin-1-yl)methanone] | 0 % of control

Structure (SMILES) | In Vitro FAAH activity, 100 nM
CON(C)C(=O)n1nnc2ccccc21 [Compound 169, N-methoxy-N-methyl-1H-benzo[d][1,2,3]triazole-1-carboxamide] | 73.6 % of control
O=C(N1CCSC1)n1nnc2ccccc21 [Compound 170, (1H-benzo[d][1,2,3]triazol-1-yl)(thiazolidin-3-yl)methanone] | 2.1 % of control
O=C(N1CCCCCCC1)n1nnc2ccccc21 [Compound 171, azocan-1-yl(1H-benzo[d][1,2,3]triazol-1-yl)methanone] | 15.2 % of control
O=C(N1CCCCCC1)n1nnc2ccccc21 [Compound 172, azepan-1-yl(1H-benzo[d][1,2,3]triazol-1-yl)methanone] | 0.3 % of control
C[C@@H]1CCC[C@H](C)N1C(=O)n1nnc2ccccc21 [Compound 173, (1H-benzo[d][1,2,3]triazol-1-yl)((2R,6S)-2,6-dimethylpiperidin-1-yl)methanone] | 70.6 % of control
O=C(N1Cc2ccccc2C1)n1nnc2ccccc21 [Compound 174, (1H-benzo[d][1,2,3]triazol-1-yl)(isoindolin-2-yl)methanone] | 0.7 % of control
CC1CC(C)CN(C(=O)n2nnc3ccccc32)C1 (centres unmarked) [Compound 175, (1H-benzo[d][1,2,3]triazol-1-yl)(3,5-dimethylpiperidin-1-yl)methanone] | 21 % of control
CCOC(=O)C1CCN(C(=O)n2nnc3ccccc32)CC1 [Compound 176, ethyl 1-(1H-benzo[d][1,2,3]triazole-1-carbonyl)piperidine-4-carboxylate] | 0.2 % of control
CCOC(=O)N1CCN(C(=O)n2nnc3ccccc32)CC1 [Compound 177, ethyl 4-(1H-benzo[d][1,2,3]triazole-1-carbonyl)piperazine-1-carboxylate] | 6.9 % of control
CC(=O)N1CCN(C(=O)n2nnc3ccccc32)CC1 [Compound 178, 1-(4-(1H-benzo[d][1,2,3]triazole-1-carbonyl)piperazin-1-yl)ethanone] | 94.5 % of control
NC(=O)C1CCN(C(=O)n2nnc3ccccc32)CC1 [Compound 179, 1-(1H-benzo[d][1,2,3]triazole-1-carbonyl)piperidine-4-carboxamide] | 49 % of control
CN(C(=O)n1cnc(-c2cccs2)n1)c1ccccc1 [Compound 180, N-methyl-N-phenyl-3-(thiophen-2-yl)-1H-1,2,4-triazole-1-carboxamide] | 57.5 % of control
CN(Cc1ccccc1)C(=O)n1cnc(-c2cccs2)n1 [Compound 181, N-benzyl-N-methyl-3-(thiophen-2-yl)-1H-1,2,4-triazole-1-carboxamide] | 0.9 % of control
O=C(N1CCc2ccccc2C1)n1cnc(-c2ccccc2)c1 [Compound 184, (3,4-dihydroisoquinolin-2(1H)-yl)(4-phenyl-1H-imidazol-1-yl)methanone] | 30.2 % of control
O=C(N1CCc2ccccc2C1)n1cnc(-c2ccc(Cl)cc2)n1 [Compound 185, (3-(4-chlorophenyl)-1H-1,2,4-triazol-1-yl)(3,4-dihydroisoquinolin-2(1H)-yl)methanone] | 71.8 % of control
CN(Cc1ccccc1)C(=O)n1cnc(-c2ccc3ccccc3c2)n1 [Compound 190, N-benzyl-N-methyl-3-(naphthalen-2-yl)-1H-1,2,4-triazole-1-carboxamide] | 20.7 % of control
CN(C(=O)n1cnc(-c2cccc3ccccc23)n1)c1ccccc1 [Compound 192, N-methyl-3-(naphthalen-1-yl)-N-phenyl-1H-1,2,4-triazole-1-carboxamide] | 64.6 % of control
C[C@@H]1CN(C(=O)n2nnc3ccccc32)C[C@@H](C)O1 [Compound 193, (1H-benzo[d][1,2,3]triazol-1-yl)((2R,6R)-2,6-dimethylmorpholino)methanone] | 110.2 % of control

Same assay, conditions: 10 uM test compound, low value = strong inhibitor

Structure (SMILES) | In Vitro FAAH activity, 10 uM
CC1(C)COCN1C(=O)n1cnc(-c2ccccc2)c1 [Compound 161, (4,4-dimethyloxazolidin-3-yl)(4-phenyl-1H-imidazol-1-yl)methanone] | 3.3 % of control
